Here are results for 16 compounds from paper PMC8011931, “Identification, Structure–Activity Relationship, and Biological Characterization of 2,3,4,5-Tetrahydro-1H-pyrido[4,3-b]indoles as a Novel Class of CFTR Potentiators” (Journal of Medicinal Chemistry, 2020).

This experiment concerns the target F508del-CFTR (Homo sapiens, UniProt P13569, DEL508-508). Put plainly: HS-YFP-based assay for CFTR activity on F508del-CFTR FRT cells rescued at 32 °C for 24 h. Conditions: for EC50: F508del-CFTR FRT cells rescued at 32 °C for 24 h, plus forskolin; for EC50 / Emax (FRT F508del-CFTR): mean ± SD (n = 3–6), n.a.: not active (up to 20 μM); for Emax: supplementary csv, same data as Tables 1–3; for Emax (FRT F508del-CFTR): normalized for the activity of analogue 3. Format: cell-based. Set-up: expressed in transfected cells; key to Emax: fold increase in F508del-CFTR rescue relative to hit 3 (normalized). How it is done: The chemical library was screened in duplicate on a Fischer rat thyroid (FRT) cell line, stably coexpressing F508del-CFTR and the halide-sensitive yellow fluorescent protein, HS-YFP.[23],[34],[35] To overcome the F508del trafficking defect, cells were initially incubated for 24 h at 32 °C and then acutely treated (15–30 min) with a single compound (5 μM) in combination with forskolin (10 μM). After stimulation, the F508del-CFTR activity in the plasma membrane was calculated by measuring the rate of fluorescence quenching arising from iodide influx.[34] This activity was compared to that of wells containing forskolin alone (negative control) or forskolin plus VX-770 (1 μM, as a positive control) (Figure 2A). Analysis of screening performance with the Z′ method gave a score of 0.6, which can be considered optimal for this type of assay. The activity scores for each compound were then plotted as an ordered distribution (Figure 2B). All compounds whose average activity calculated from the two rounds of screening was greater than 185% with respect to the negative control (i.e., forskolin alone) were considered as primary hits.
The primary hits were confirmed by testing them at different concentrations, in order to extrapolate the dose–response relationship. First, we focused on the F508del mutant. The compounds were tested in the low micromolar range, in the presence of forskolin (10 μM), on F508del-CFTR FRT cells following rescue of the trafficking defect by low-temperature incubation, as done for the primary screening. The most interesting hits were subsequently tested for their ability to overcome the more severe gating defect of pure class III mutant using FRT cells stably expressing G551D-CFTR (Figure 3B).
The role of the heteroaryl group (A) acylating the position 2 of the tetrahydro-γ-carboline was initially explored by modifying the substituent on the pyrazolyl residue and replacing the pyrazole with other rings, while keeping the 8-methoxy carboline moiety unmodified. The activity of each compound is described in terms of normalized maximal efficacy (Emax), the maximum fold increase in the rescue of F508del-CFTR activity with respect to hit 3, and potency (EC50), the concentration producing half-maximal efficacy.
FRT cells stably expressing mutant F508del-CFTR or G551D-CFTR and the halide-sensitive yellow fluorescent protein (HS-YFP) YFP-H148Q/I152L and CFBE41o-cells stably expressing F508del-CFTR and HS-YFP were generated as previously described.[21],[57] FRT cells were cultured using the Coon’s modification of Ham’s F12 medium, while CFBE41o-cells were cultured in the modified Eagle’s medium. Media were supplemented with 10% fetal calf serum, 2 mM L-glutamine, 100 U/mL of penicillin, and […] of streptomycin. For functional assays of CFTR activity based on the HS-YFP assays, CFBE41o- or FRT cells were plated (50,000 cells/well) on clear-bottom 96-well black microplates (Corning Life Sciences, Acton, MA). The following day, cells were assayed. In the case of FRT cells expressing F508del-CFTR, plates were kept at 32 °C (or treated with correctors at 37 °C where indicated) for an additional 24 h to rescue the mutant trafficking defect, before assays.
Prior assay, cells were washed with phosphate-buffered saline (PBS) containing (in mM) 137 NaCl, 2.7 KCl, 8.1 Na2HPO4, 1.5 KH2PO4, 1 CaCl2, and 0.5 MgCl2. Cells were then incubated for 25 min with 60 μL of PBS plus forskolin (20 μM) and test compounds (at the desired concentration) to stimulate mutant CFTR. Cells were then transferred to microplate readers (FluoStar Optima; BMG Labtech, Offenburg, Germany) for CFTR activity determination. The plate readers were equipped with high-quality excitation (HQ500/20X: 500 ± 10 nm) and emission (HQ535/30M: 535 ± 15 nm) filters for YFP (Chroma Technology). […]

Sequence of F508del-CFTR (P13569 with tags, fused parts or gaps DEL508-508): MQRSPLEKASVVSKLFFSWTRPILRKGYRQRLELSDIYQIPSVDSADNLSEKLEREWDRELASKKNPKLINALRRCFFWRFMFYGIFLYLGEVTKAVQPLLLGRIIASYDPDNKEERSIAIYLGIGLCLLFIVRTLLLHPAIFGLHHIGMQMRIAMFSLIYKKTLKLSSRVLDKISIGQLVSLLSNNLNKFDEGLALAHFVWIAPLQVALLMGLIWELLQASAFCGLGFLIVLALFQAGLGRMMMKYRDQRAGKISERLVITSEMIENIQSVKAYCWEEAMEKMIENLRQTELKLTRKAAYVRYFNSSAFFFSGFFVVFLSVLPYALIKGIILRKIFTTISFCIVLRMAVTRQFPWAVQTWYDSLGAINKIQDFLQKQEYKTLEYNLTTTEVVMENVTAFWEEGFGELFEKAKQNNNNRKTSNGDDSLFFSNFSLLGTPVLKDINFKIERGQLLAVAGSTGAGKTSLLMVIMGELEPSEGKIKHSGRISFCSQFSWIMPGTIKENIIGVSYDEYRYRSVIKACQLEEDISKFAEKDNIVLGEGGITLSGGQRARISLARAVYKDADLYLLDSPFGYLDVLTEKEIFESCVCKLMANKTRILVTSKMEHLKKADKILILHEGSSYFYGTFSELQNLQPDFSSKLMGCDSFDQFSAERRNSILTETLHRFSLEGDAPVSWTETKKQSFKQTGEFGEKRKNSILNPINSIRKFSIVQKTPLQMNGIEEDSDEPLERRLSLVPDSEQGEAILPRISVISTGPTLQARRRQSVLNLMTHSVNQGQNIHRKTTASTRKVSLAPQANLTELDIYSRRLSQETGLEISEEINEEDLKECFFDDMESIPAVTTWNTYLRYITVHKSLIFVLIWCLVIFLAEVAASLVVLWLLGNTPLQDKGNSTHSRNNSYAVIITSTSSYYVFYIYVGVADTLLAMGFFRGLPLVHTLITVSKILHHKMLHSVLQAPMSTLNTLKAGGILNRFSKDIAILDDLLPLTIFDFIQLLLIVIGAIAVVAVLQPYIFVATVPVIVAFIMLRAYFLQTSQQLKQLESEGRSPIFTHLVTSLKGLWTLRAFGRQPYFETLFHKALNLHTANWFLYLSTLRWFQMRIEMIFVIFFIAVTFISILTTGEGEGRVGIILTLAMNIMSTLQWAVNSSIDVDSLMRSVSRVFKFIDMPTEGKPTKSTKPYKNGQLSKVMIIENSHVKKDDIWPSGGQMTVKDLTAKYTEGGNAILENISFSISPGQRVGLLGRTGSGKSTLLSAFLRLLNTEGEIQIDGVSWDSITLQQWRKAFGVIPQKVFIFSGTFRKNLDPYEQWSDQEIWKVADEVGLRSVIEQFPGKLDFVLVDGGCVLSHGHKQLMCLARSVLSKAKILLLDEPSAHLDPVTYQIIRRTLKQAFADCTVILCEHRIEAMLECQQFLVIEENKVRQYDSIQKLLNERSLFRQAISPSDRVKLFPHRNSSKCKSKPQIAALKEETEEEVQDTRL

The EC50 is the concentration that produces a half-maximal response. In the case of `COc1ccc2[nH]c3c(c2c1)CN(C(=O)c1c[nH]c(C(F)(F)F)n1)CC3` [Compound 8, (8-Methoxy-1,3,4,5-tetrahydro-2H-pyrido[4,3-b]indol-2-yl)-(2-(trifluoromethyl)-1H-imidazol-4-yl)methanone], the EC50 is 2.8 ± 0.8 µM and the Emax turned out to be 0.59 ± 0.14.
Consider `Cc1ccc(F)c2[nH]c3c(c12)CN(C(=O)c1cc(C(F)(F)F)[nH]n1)C(C)(C)C3` [Compound 34, (6-Fluoro-3,3,9-trimethyl-1,3,4,5-tetrahydro-2H-pyrido[4,3-b]indol-2-yl)-(5-(trifluoromethyl)-1H-pyrazol-3-yl)methanone], for which the EC50 worked out at 1.91 ± 0.26 µM, the “Emax (FRT F508del-CFTR)” value was 0.79 ± 0.13 and the Emax is listed as 0.79 ± 0.13.
Turning to `N#Cc1ccc2[nH]c3c(c2c1)CN(C(=O)c1cc(C(F)(F)F)[nH]n1)CC3` [Compound 23, 2-(5-(Trifluoromethyl)-1H-pyrazole-3-carbonyl)-2,3,4,5-tetrahydro-1H-pyrido[4,3-b]indole-8-carbonitrile], the EC50 came to 1.9 ± 0.2 µM and the Emax is 0.75 ± 0.11.
As to `Cc1ccc2c3c([nH]c2c1)CCN(C(=O)c1cc(C(F)(F)F)[nH]n1)C3` [Compound 16, (7-Methyl-1,3,4,5-tetrahydro-2H-pyrido[4,3-b]indol-2-yl)-(5-(trifluoromethyl)-1H-pyrazol-3-yl)methanone], the EC50 was 0.2 ± 0.06 µM and the Emax was 0.22 ± 0.04.
In the case of `Cc1ccc(F)c2[nH]c3c(c12)C(C)N(C(=O)c1cc(C(F)(F)F)[nH]n1)CC3` (single isomer, unassigned) [Compound 41, (R)- or (S)-(6-Fluoro-1,9-dimethyl-1,3,4,5-tetrahydro-2H-pyrido[4,3-b]indol-2-yl)-(5-(trifluoromethyl)-1H-pyrazol-3-yl)methanone], the EC50 was 0.08 ± 0.02 µM and the Emax is recorded as 1.0 ± 0.22.
Regarding `Cc1ccc(F)c2[nH]c3c(c12)C1CCC(C3)N1C(=O)c1cc(C(F)(F)F)[nH]n1` (racemic) [Compound 35, (±)-(4-Fluoro-1-methyl-5,6,7,8,9,10-hexahydro-7,10-epiminocyclohepta[b]indol-11-yl)-(5-(trifluoromethyl)-1H-pyrazol-3-yl)methanone], the EC50 is 1.3 ± 0.3 µM and the Emax was determined as 0.82 ± 0.07.
For `Cc1ccc(F)c2[nH]c3c(c12)CN(C(=O)c1cc(C(F)(F)F)[nH]n1)C(C)C3` (racemic) [Compound 33, (±)-(6-Fluoro-3,9-dimethyl-1,3,4,5-tetrahydro-2H-pyrido[4,3-b]indol-2-yl)-(5-(trifluoromethyl)-1H-pyrazol-3-yl)methanone], the EC50 is 0.022 ± 0.011 µM and the Emax was determined as 0.95 ± 0.27.
Take `O=C(c1cc(C(F)(F)F)[nH]n1)N1CCc2[nH]c3ccccc3c2C1` [Compound 13, (1,3,4,5-Tetrahydro-2H-pyrido[4,3-b]indol-2-yl)-(5-(trifluoromethyl)-1H-pyrazol-3-yl)methanone]: the EC50 came to 0.23 ± 0.05 µM and the Emax was 1.05 ± 0.17.
The corresponding values for `O=C(c1cnn(-c2ccccc2)c1)N1CCc2[nH]c3ccccc3c2C1` [Compound 2, (1-Phenyl-1H-pyrazol-4-yl)-(1,3,4,5-tetrahydro-2H-pyrido[4,3-b]indol-2-yl)methanone] are 4.1 ± 1.3 µM and 0.79 ± 0.13.
Regarding `CS(=O)(=O)c1ccc2[nH]c3c(c2c1)CN(C(=O)c1cc(C(F)(F)F)[nH]n1)CC3` [Compound 24, (8-(Methylsulfonyl)-1,3,4,5-tetrahydro-2H-pyrido[4,3-b]indol-2-yl)-(5-(trifluoromethyl)-1H-pyrazol-3-yl)methanone], the EC50 came out at 10.5 ± 2.2 µM and the Emax stood at 0.28 ± 0.04.
For the compound `Cc1ccc(F)c2c3c([nH]c12)CCN(C(=O)c1cc(C(F)(F)F)[nH]n1)C3` [Compound 31, (9-Fluoro-6-methyl-1,3,4,5-tetrahydro-2H-pyrido[4,3-b]indol-2-yl)(5-(trifluoromethyl)-1H-pyrazol-3-yl)methanone], the EC50 is 0.94 ± 0.25 µM and the Emax is 0.65 ± 0.08. Further, the “fold decrease (drop) in potency with respect to 30” value (EC50, F508del-CFTR FRT cells) was “more than 15 fold”.
For the compound `Cc1cccc2c3c([nH]c12)CCN(C(=O)c1cc(C(F)(F)F)[nH]n1)C3` [Compound 17, (6-Methyl-1,3,4,5-tetrahydro-2H-pyrido[4,3-b]indol-2-yl)-(5-(trifluoromethyl)-1H-pyrazol-3-yl)methanone], the EC50 came out at 1.14 ± 0.13 µM and the Emax was 1.0 ± 0.08.
Consider `COc1ccc2[nH]c3c(c2c1)CN(C(=O)c1cc(C)[nH]n1)CC3` [Compound 5, (8-Methoxy-1,3,4,5-tetrahydro-2H-pyrido[4,3-b]indol-2-yl)-(5-methyl-1H-pyrazol-3-yl)methanone], for which the EC50 was determined as 60 ± 4 µM, the “Emax (FRT F508del-CFTR)” value worked out at 0.59 ± 0.11 and the Emax amounted to 0.59 ± 0.11.
Regarding `COc1ccc2[nH]c3c(c2c1)CN(C(=O)c1cc(-c2ccccc2)[nH]n1)CC3` [Compound 7, (8-Methoxy-1,3,4,5-tetrahydro-2H-pyrido[4,3-b]indol-2-yl)-(5-phenyl-1H-pyrazol-3-yl)methanone], the EC50 was 0.82 ± 0.17 µM, the “Emax (FRT F508del-CFTR)” value came out at 0.84 ± 0.23 and the Emax is on record as 0.84 ± 0.23.
For `Cc1ccc(F)c2[nH]c3c(c12)C(C)N(C(=O)c1cc(C(F)(F)F)[nH]n1)CC3` (single isomer, unassigned) [Compound 42, (S)- or (R)-(6-Fluoro-1,9-dimethyl-1,3,4,5-tetrahydro-2H-pyrido[4,3-b]indol-2-yl)-(5-(trifluoromethyl)-1H-pyrazol-3-yl)methanone], the EC50 amounted to 0.05 ± 0.01 µM and the Emax is recorded as 0.9 ± 0.3.
In the case of `O=C(c1cc(C(F)(F)F)[nH]n1)N1CCc2[nH]c3c(F)cc(C(F)(F)F)cc3c2C1` [Compound 28, (6-Fluoro-8-trifluoromethyl-1,3,4,5-tetrahydro-2H-pyrido[4,3-b]indol-2-yl)-(5-(trifluoromethyl)-1H-pyrazol-3-yl)methanone], the EC50 is 0.57 ± 0.14 µM and the Emax turned out to be 0.94 ± 0.13. In addition, the “fold drop in potency with respect to 20” value (EC50, F508del-CFTR FRT cells) worked out at 6 fold.
